Assay results reported in publication PMC9706033 (Journal of Microbiology and Biotechnology, 2021).
pEC50, pIC50: −log10 of the molar value. Read-outs that look alike come from different tables or passages of the source. One block for each molecule: values may come before it.

Experiments:
[1] = Water solubility determination (UPLC of supernatant); format: physicochemical
Method: Each sample was centrifuged at 16,000 g for 30 min. Subsequently, the supernatant of each sample was filtered, and the concentration of the compound in the supernatant as a water-soluble component was estimated by UPLC analysis.

[2] = molecular target: T1, tyrosinase (Mus musculus, UniProt P11344); assay: Cellular tyrosinase activity in α-MSH-stimulated B16F10 melanoma cells; format: cell-based; details: 48 h; for inhibition at 300 µM: B16-F10
T1 construct: endogenous in cells; host or cells: B16F10 melanoma cells, α-MSH-stimulated
T1 sequence (P11344 19-533): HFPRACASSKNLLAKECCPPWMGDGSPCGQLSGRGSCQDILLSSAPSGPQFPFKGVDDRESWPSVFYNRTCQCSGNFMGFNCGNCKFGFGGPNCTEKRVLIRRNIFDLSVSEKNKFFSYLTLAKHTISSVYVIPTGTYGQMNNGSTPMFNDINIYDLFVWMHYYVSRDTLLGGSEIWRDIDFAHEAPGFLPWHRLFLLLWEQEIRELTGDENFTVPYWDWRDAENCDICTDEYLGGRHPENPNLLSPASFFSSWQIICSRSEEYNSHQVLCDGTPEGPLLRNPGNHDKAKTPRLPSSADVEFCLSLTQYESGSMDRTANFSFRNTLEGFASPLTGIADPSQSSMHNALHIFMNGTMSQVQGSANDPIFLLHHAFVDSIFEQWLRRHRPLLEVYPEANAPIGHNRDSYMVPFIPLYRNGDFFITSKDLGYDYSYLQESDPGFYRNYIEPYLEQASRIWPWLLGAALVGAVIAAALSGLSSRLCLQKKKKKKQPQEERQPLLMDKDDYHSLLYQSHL

[3] = system: B16F10 melanoma cells; assay: Cellular melanin content in α-MSH-stimulated B16F10 melanoma cells; format: cell-based; details: 72 h
Method: Cellular melanin content was determined by the method of Park et al. with minor modifications. The cells (5 × 10^4 cells/well) were seeded into 6-well plates and cultured for 24 h. […] Then, the cells were washed with PBS and lysed with lysis buffer, and the supernatant was removed by centrifugation at 16,000 g for 15 min at 4°C. The protein concentration of the supernatant was determined by the Bradford method. The pellet was dissolved in 1 M NaOH and measured at 405 nm using a microplate reader.

[4] = Stability against oxidative degradation in buffer solutions and cell culture medium; format: physicochemical; details: 37°C, up to 72 h, read-out: Half-life, t1/2 (converted)
[5] = DPPH free-radical scavenging assay
Method: DPPH free-radical scavenging capability and ferric reducing antioxidant power (FRAP) assay results were evaluated as described previously by Moon et al.. Hydroxy radical-scavenging assay was measured as described by Su et al.. Vitamin C was used as a positive control. Each assay was measured from 1 min to 30 h. The DPPH radical-scavenging activity was calculated as follows: DPPH radical-scavenging activity (%) = (1-Asample/Ablank) × 100, where Asample is the absorbance in the presence of the sample, and Ablank is the absorbance of the blank. Hydroxy radical-scavenging activity was calculated in accordance with the following formula: Hydroxy radical scavenging activity (%) = (Asample-Acontrol)/(Ablank-Acontrol) × 100, where Asample is the absorbance in the presence of the sample, Acontrol is the absorbance of the blank with H2O2, and Ablank is the absorbance of the blank without H2O2.

[6] = Hydroxyl radical scavenging assay
[7] = system: B16F10 melanoma cells; format: cell-based; details: mouse, 24 h
Method: Cell culture and cell viability assay. B16F10 melanoma cells were maintained in DMEM supplemented with 10% FBS, 100 U/ml penicillin, and 100 μg/ml streptomycin. The cells were cultured at 37°C under 5% CO2 in a humidified culture chamber. Cell viability was determined by 3-(4,5-dimethythiazol-2-yl)-2,5-diphenyl tetrazolium bromide (MTT) assay. The cells (6 × 10^3 cells/well) were seeded into 96-well plates and cultured for 24 h. […] After 24 h, the cells were washed with PBS, MTT reagent (0.5 mg/ml) was added to each well, and the cells were incubated at 37°C for 1 h. The supernatant in each well was discarded for the treatment with DMSO, which was used to dissolve the formazan crystals formed from viable cells. After the DMSO treatment, the absorbance of each well was measured at 595 nm using a microplate reader (Epoch, Biotek, USA).

[8] = system: B16F10 cells; assay: Cellular uptake assay (UPLC of medium and cell lysates); format: cell-based; details: after 24 h incubation with B16F10 cells; resveratrol 20 μM, glucosides 100 μM
Method: The cellular uptake assay was conducted following the method described by Moon et al. with minor modification. The B16F10 cells (2 × 10^5 cells/well) were seeded into 6-well plates. […] After 24 h of incubation, the medium was removed, and the cells were washed with PBS and then scraped off. […] The lysate was centrifuged at 16,000 g for 10 min and filtered by a 0.2 μm syringe filter. The cell extracts were analyzed by UPLC.

[9] = humans; cited from earlier work
[10] = system: polyphenol oxidases; details: cited from earlier work
[11] = set-up: method as in PMID 9599270; details: read-out: Antioxidant activity IC50; cited from earlier work
[12] = system: tyrosinase; set-up: method as in PMID 7765966; details: tyrosinase of B16 mouse melanoma; cited from earlier work
[13] = distilled water, sonicated 1 h at room temperature
[14] = 100 μM, α-MSH-stimulated B16F10
[15] = Buffer pH 2.0 (hydrochloric acid)
[16] = DMEM cell culture medium without FBS, DMEM (without FBS)
[17] = phosphate-buffered saline, PBS (pH 7.4)
[18] = simulated body fluid, SBF (pH 7.4)

SMILES: OC[C@H]1O[C@H](Oc2ccc(C=Cc3cc(O)cc(O)c3)cc2)[C@H](O)[C@@H](O)[C@@H]1O [R1, resveratrol-4′-O-α-glucoside]
Water solubility [1, 13]: 515 µg/mL
Water solubility (molar) [1, 13]: 1319 µM

Water solubility [1]: 471 µg/mL
Water solubility (molar) [1]: 1206 µM
SMILES: OC[C@H]1O[C@H](Oc2cc(O)cc(C=Cc3ccc(O)cc3)c2)[C@H](O)[C@@H](O)[C@@H]1O [R2, resveratrol-3-O-α-glucoside]

Suppression of tyrosinase activity [2, 14]: 15.8%
inhibition at 300 µM ([2]; α-MSH-stimulated B16F10): 25.6%
SMILES: OC[C@H]1O[C@@H](Oc2ccc(O)cc2)[C@H](O)[C@@H](O)[C@@H]1O [arbutin]
Suppression of melanin synthesis ([3]; 100 μM): 51.2%
Suppression of melanin synthesis ([3]; 300 μM): 74.5%

Water solubility [1, 13]: 36 µg/mL
solubility at 1 h ([1]; distilled water, sonicated 1 h at room temperature, read-out: Water solubility (molar)): 157.7 µM
half-life at 10 mM [4, 15]: > 72 h
half-life at 10 mM ([4]; Buffer pH 9.0 (Tris-HCl)): 1.5 h
half-life at 10 mM [4, 16]: > 72 h
half-life at 10 mM [4, 17]: 28 h
half-life at 10 mM [4, 18]: 44 h
pEC50 ([5]; at 30 min): 3.28
pEC50 ([5]; at 5 h): 3.93
pEC50 ([6]; at 30 min): 3.86
Suppression of tyrosinase activity ([2]; 20 μM, compared with cells treated with MSH alone): 70.5%
Amount remaining in the extracellular medium [8]: 59 % of the initial amount
SMILES: Oc1ccc(/C=C/c2cc(O)cc(O)c2)cc1 [resveratrol, trans-3,5,4′-trihydroxystilbene]
Effect on growth of B16F10 cells [7]: inhibited the growth of B16F10 cells in a dose-dependent manner
Oral bioavailability [9]: less than 1%
Half-life (t1/2) in the reaction of polyphenol oxidases compared with piceid [10]: three times shorter

SMILES: OC[C@H]1O[C@@H](Oc2ccc(/C=C/c3cc(O)cc(O)c3)cc2)[C@H](O)[C@@H](O)[C@@H]1O [resveratrol-4′-O-β-glucoside]
pIC50 [11]: 3.00

SMILES: O=C1O[C@H]([C@@H](O)CO)C(O)=C1O [vitamin C]
Time to scavenge the DPPH radical [5]: ≤ 30 min

SMILES: OC[C@H]1O[C@H](Oc2ccc(O)cc2)[C@H](O)[C@@H](O)[C@@H]1O [α-arbutin]
Inhibitory activity, times as strong as that of β-arbutin [12]: 10 times

SMILES: OC[C@H]1O[C@@H](Oc2cc(O)cc(/C=C/c3ccc(O)cc3)c2)[C@H](O)[C@@H](O)[C@@H]1O [β-piceid]
solubility at 1 h ([1]; thermodynamic from solid, distilled water, sonicated 1 h at room temperature, read-out: Water solubility): 137 µg/mL
solubility at 1 h ([1]; thermodynamic from solid, distilled water, sonicated 1 h at room temperature, read-out: Water solubility (molar)): 351 µM
half-life at 10 mM [4, 15]: > 72 h
half-life at 10 mM ([4]; Buffer pH 9.0 (Tris-HCl)): > 72 h
half-life at 10 mM [4, 16]: > 72 h
half-life at 10 mM [4, 17]: > 72 h
half-life at 10 mM [4, 18]: > 72 h
pEC50 ([5]; at 30 min): 3.36
pEC50 ([5]; at 5 h): 3.16
pEC50 ([6]; at 30 min): 3.67
pEC50 ([6]; at 5 h): 4.27
Concentration affecting proliferation of B16F10 cells [7]: above 100 μM
Suppression of tyrosinase activity [2, 14]: 19.2%
inhibition at 300 µM ([2]; α-MSH-stimulated B16F10): 29.7%
Suppression of melanin synthesis ([3]; 100 μM): 36.5%
Suppression of melanin synthesis ([3]; 300 μM): 46.3%
pIC50 [11]: 3.70
